Here are results for 2 compounds from patent US9949369B2, “Cyanate ester compound, curable resin composition containing the same, and hardened product thereof” (MITSUBISHI GAS CHEMICAL COMPANY, INC., priority 2013, dated 2018).

Each structure is given as a SMILES string. A value given as a limit tells only on which side of the number the result lay.

The nature of this data set: Solubility of the cyanate ester monomer in methyl ethyl ketone (MEK). Format: physicochemical. The settings on record: 25° C.

Consider `CC12CC3(C)CC(c4ccc(OC#N)cc4)(C1)CC(c1ccc(OC#N)cc1)(C2)C3` [AMTCN, 1,3-Bis(4-Cyanatophenyl)-5,7-Dimethyladamantane], for which the “amount that could be dissolved in methyl ethyl ketone (MEK)” value was not below 50 % by mass. Regarding `Cc1cc(C23CC4(C)CC(C)(C2)CC(c2ccc(OC#N)c(C)c2)(C4)C3)ccc1OC#N` [AMTcCN, 1,3-Bis(3-Methyl-4-Cyanatophenyl)-5,7-Dimethyladamantane], the “amount that could be dissolved in methyl ethyl ketone (MEK)” value is recorded as not below 50 % by mass.
